In the supplement of paper PMC4862054:

How the values were obtained:
Conditions in all cases: incubation time: 72 h
[1] = tested on: BT-474; experiment: normalised viability (% of control), CellTiter-Blue; higher = more viable cells (about 100 = DMSO control)
Procedure, shortened: (§1)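 384-well plates were pre-loaded with compound in 5 µl medium before 20 µl of breast cancer cell suspension was seeded. Following 72 h incubation, 2.5 µl CellTiter-Blue reagent was added for 2 h at 37 °C. Fluorescence was read at 560/590 nm and plates were normalised to vehicle (100) and a positive kill control (0), checked by Z'-factor. Normalised viability is reported at a single listed concentration of the series.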

[2] = tested on: CAL-120; experiment: as above
Procedure, shortened: as §1

[3] = tested on: CAL-148; experiment: as above
Procedure, shortened: as §1

[4] = tested on: CAL-51; experiment: as above
Procedure, shortened: as §1

[5] = tested on: CAL-85-1; experiment: as above
Procedure, shortened: as §1

[6] = tested on: HCC1143; experiment: as above
Procedure, shortened: as §1

[7] = tested on: HCC1599; experiment: as above
Procedure, shortened: as §1

[8] = tested on: HCC1937; experiment: as above
Procedure, shortened: as §1

[9] = tested on: HDQ-P1; experiment: as above
Procedure, shortened: as §1

[10] = tested on: Hs578T; experiment: as above
Procedure, shortened: as §1

[11] = tested on: MDA-MB-231; experiment: as above
Procedure, shortened: as §1

[12] = tested on: MDA-MB-468; experiment: as above
Procedure, shortened: as §1

[13] = tested on: MFM-223; experiment: as above
Procedure, shortened: as §1

[14] = tested on: SK-BR-3; experiment: as above
Procedure, shortened: as §1

[15] = tested on: BT-474; experiment: drug sensitivity score (DSS), CellTiter-Glo (DSS (AUC-based score)); higher = stronger drug effect (viability inhibition or cytotoxicity); extreme values may be limits of the assay
Procedure, shortened: (§2)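 Breast cancer cell lines (20 µl suspension) were seeded into 384-well plates holding compound at 5 concentrations in 10-fold steps over a compound-specific 10,000-fold range, then incubated 72 h. CellTox Green fluorescence (485/520 nm) was read first, then CellTiter-Glo luminescence after 10 min at room temperature. Each plate was normalised to 0.1 % DMSO and a positive kill control. The drug sensitivity score was calculated from the area under the fitted dose-response curve.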

[16] = tested on: CAL-120; experiment: as above
Procedure, shortened: as §2

[17] = tested on: CAL-51; experiment: as above
Procedure, shortened: as §2

[18] = tested on: CAL-85-1; experiment: as above
Procedure, shortened: as §2

[19] = tested on: DU-4475; experiment: as above
Procedure, shortened: as §2

[20] = tested on: HCC1599; experiment: as above
Procedure, shortened: as §2

[21] = tested on: HDQ-P1; experiment: as above
Procedure, shortened: as §2

[22] = tested on: Hs578T; experiment: as above
Procedure, shortened: as §2

[23] = tested on: MDA-MB-231; experiment: as above
Procedure, shortened: as §2

[24] = tested on: SK-BR-3; experiment: as above
Procedure, shortened: as §2

C#Cc1cccc(Nc2ncnc3cc(OCCOC)c(OCCOC)cc23)c1 [Erlotinib]
normalised viability [%]
Conditions | 3 nM | 10 nM | 30 nM | 100 nM | 1000 nM | 10000 nM
[1] | – | 98.5 | – | – | 90.1 | 51
[2] | – | 91.4 | – | – | 95.1 | 50.1
[3] | 89.7 | – | 102 | 98.2 | – | –
[4] | 102 | – | 96.1 | 98.8 | – | –
[5] | 93.7 | – | 82.8 | 88 | – | –
[6] | – | 105 | – | – | 90.7 | 68.8
[7] | – | 91 | – | – | 74.5 | 54.8
[8] | – | 95 | – | – | 80.2 | 63.6
[9] | 108 | – | 94 | 85 | – | –
[10] | – | 123 | – | – | 120 | 69
[11] | – | 95 | – | – | 120 | 95.5
[12] | – | 108 | – | – | 75.2 | 43.6
[13] | – | 97.3 | – | – | 91.5 | 54.1
[14] | – | 91 | – | – | 91.2 | 27.6

Conditions | drug sensitivity score
[15] | 0
[16] | 0.577
[17] | 2.18
[18] | 7.99
[19] | 0
[20] | 0
[21] | 9.11
[22] | 0
[23] | 0
[24] | 2.74

N.N.[Cl][Pt][Cl] [Cisplatin]
normalised viability [%]
Conditions | 3 nM | 10 nM | 30 nM | 100 nM | 1000 nM | 10000 nM
[1] | – | 115 | – | – | 122 | 135
[2] | – | 90.3 | – | – | 93.3 | 102
[3] | 92.1 | – | 102 | 103 | – | –
[4] | 107 | – | 97.9 | 109 | – | –
[5] | 96.2 | – | 87.7 | 95.7 | – | –
[6] | – | 88.2 | – | – | 89.3 | 89.2
[7] | – | 100 | – | – | 93.4 | 86.7
[8] | – | 87 | – | – | 106 | 105
[9] | 116 | – | 118 | 111 | – | –
[10] | – | 100 | – | – | 139 | 122
[11] | – | 99.2 | – | – | 101 | 104
[12] | – | 101 | – | – | 101 | 106
[13] | – | 88.5 | – | – | 91 | 99.1
[14] | – | 99.1 | – | – | 105 | 111

Conditions | drug sensitivity score
[15] | 0
[16] | 0
[17] | 0
[18] | 0
[19] | 0
[20] | 0
[21] | 0
[22] | 0
[23] | 0
[24] | 0
